# In patent US8895599B2, “Lipoprotein lipase-activating compositions comprising benzene derivates” (Otsuka Pharmaceutical Factory, Inc., priority 2008, dated 2014):
# Tests used:
# [1] = Anti-obesity test using AKR mice (high-fat feed); type: in vivo; conditions: 1 mg per gram of feed in high-fat feed, 7 weeks, AKR/J mice, relative to high-fat feed control group
# Excerpt: Anti-Obesity Test Using AKR Mice
# Furthermore, this test enables the evaluation of therapeutic effects on diabetes. That is, it is reported that insulinemia can be observed in AKR/J mice when they are fed with a high-fat diet (see Am. J. Physiol. 266 (5 Pt 2), May 1994: R1423-8). It is thus known that insulinemia is strongly associated with diabetes (see, for example, J. Cardiovasc. Nurs. 16 (2), January 2002: 17-23). Therefore, this test can verify the therapeutic effects of the compounds of the present invention, used as test compounds, on diabetes.
# For rat feed, powdered CRF-1 (Charles River Formula 1, manufactured by Oriental Yeast, Co., Ltd.) was used as normal feed. As high-fat feed, that prepared by blending CRF-1 with 18% safflower oil (Oriental Yeast, Co., Ltd.) was used.
# Test substances were blended with the high-fat feed in an amount of 1 mg per gram of CRF-1.
# AKR/J mice (from CLEA Japan, Inc.) were purchased at the age of 4 weeks. They were roughly divided into 2 groups according to body weight when the mice reached 5 weeks old. During this period, all mice were given the normal feed.
# Subsequently, the mice of one group (8 mice) continued to be fed with the normal feed (normal feed group). The mice of the other group (8×(the number of the test substances+1) mice) were given the high-fat feed (high-fat feed group).
# The body weight of the mice of each group was measured daily. […] These mice were further reared for 7 weeks (“test substances+high-fat feed groups”; n=8 per type of test substance). Specifically, the administration of the test substances was continued for 7 weeks. A group of mice to which high-fat feed containing no test substance was continued to be given was used as a control (high-fat feed control group; n=8).
# Four hours after the feeding on the last day of the 7-week test (the last day of the test), the body weight of the mice of the “test substances+high fat feed groups” was measured. Blood was collected from the abdominal aorta of the mice using a heparinized syringe, and the leptin and insulin levels in the plasma were measured using an Elisa kit (produced by Morinaga). The mice of the other groups (normal feed group and high-fat feed control group) were reared till the last day of the test as above, and 4 hours after the last feeding on the last day of the test the measurements were performed according to the same procedures.
# The average values of the test results (body weight, leptin level, and insulin level) of the test substances+high-fat feed groups to which the compounds prepared in Examples (Examples 10 and 58) were used as test substances (hereinbelow referred to as the “Example Compound 10-mixed high-fat feed group” and “Example Compound 58-mixed high-fat feed group”) were compared with the respective average values (standard values) of the results obtained from the mice of the high-fat control group to obtain the variations (differences). The differences were expressed as percentages in relation to the standard values. The values thus calculated were referred to as “weight change (%)”, “leptin level change (%)”, and “insulin level change (%)”. In the table below, the symbols “−” (minus) indicate that the differences are negative relative to the standard values.
# [2] = Therapeutical effect on olive oil-induced triglyceride hyperlipidemia models; type: in vivo; conditions: once a day for one week, SD rats, 2 h after olive oil
# Description: Test of Therapeutical Effect on Olive Oil-Induced Triglyceride Hyperlipidemia Models
# To conduct this test, 6-week-old SD rats (purchased from Charles River Japan) were used.
# According to the body weight of the test rats when they were 5 weeks old, the test rats were divided into test groups and a control group with 6 rats per group.
# A predetermined amount of each compound prepared in the Examples was measured and placed in an agate mortar. While 5% aqueous gum arabic solution was gradually introduced to the mortar, the compound was uniformly ground and suspended. Test samples were prepared by further adding 5% aqueous gum arabic solution gradually. Subsequently, these test samples were subjected to ultrasonic washing for 10 minutes to homogenize. Test samples were prepared as and when necessary.
# The rats of the test groups were orally administered with the compounds of the invention such that rats received the compounds in an amount of 10, 30, or 100 mg/kg. The compounds of the invention were formulated as 5% gum arabic suspensions as described above.
# The rats of the control group were orally administered with 5% aqueous gum arabic solution (not containing the compounds of the invention) in an amount of 5 ml/kg body weight. Administration was conducted once a day continuously for one week at a specific time of day after the rats reached 6 weeks of age. This test was performed under non-fasting conditions (rats had free access to feed and water), and the rats were fasted after the final administration of the compounds or 5% aqueous gum arabic solution.
# Two hours after the final administration, olive oil was orally administered to the rats from both groups in an amount of 3 ml/kg body weight.
# Two hours after the olive oil administration, blood was collected from the abdominal aorta of the rats of the respective groups using a heparinized syringe. The plasma was centrifugally separated from the blood at a temperature of 4° C., and the triglyceride level of the plasma was measured. A Hitachi 7170 automatic analyzer was used as the measuring instrument. Using the values measured from the test groups and control group, the decrease (%) in plasma triglyceride level was calculated according to the following equation: Decrease (%) in plasma triglyceride concentration=(1−E/C)×100 wherein E represents the average plasma triglyceride level in each test group; and C represents the average plasma triglyceride level in the control group.
# [3] = Anti-obesity test using Zucker fatty rats; type: in vivo; conditions: 100 mg/kg oral, once a day over 4 weeks, relative to control group
# Excerpt: Anti-Obesity Test Using Zucker Fatty Rats
# Zucker fatty rats are obese rats discovered by Zucker et al., in 1961 as mutants among 13 M rats, which are a hybrid between 13C and M rats. These rats (fa/fa) start to appear distinctly obese from normal broods around the age of 3 weeks. As they age, the weight difference between the fatty rats and normal rats increases. Zucker fatty rats are currently kept by a variety of organizations as simple obesity models, and are readily obtainable.
# This test was performed using this rat model to evaluate the anti-obesity action of the compounds of the invention. The preparation method of test samples and the test procedures are described below:
# The test samples were prepared in the same manner as in Test Example 2.
# Zucker fatty rats and lean rats (both from Charles River Japan) were purchased at the age of 5 weeks. They were divided into groups (10 rats per group) according to body weight when they reached 6 weeks old. After acclimatization, the administration of test samples was initiated when the rats reached 8 weeks old. Test samples were orally administered using an oral gavage so that the compounds of the invention contained in the test samples were given in an amount of 100 mg/kg body weight (test sample dosage: 5 ml/kg body weight). The test samples were administered once a day over 4 weeks at a specific time of day.
# As a control, a group of rats were administered with the same amount of 5% aqueous gum arabic solution (5 ml/kg body weight) instead of the test samples.
# The rats of all groups were weighed on the last day of administration. The average body weight of the rats of each test group was compared with the average body weight (standard weight) of the rats of the control group to obtain the weight variations (differences). The weight differences were expressed as percentages in relation to the standard weight. The values thus calculated are referred to as “weight change %”. When a weight difference is negative relative to the standard weight, weight change % is shown with “−” (minus).
# During the test period, the rats of the respective groups had free access to rat feed (“CRF-1”, manufactured by Oriental Yeast, Co., Ltd.) and water (tap water).
structure (smiles),measurement,setting,value
COc1cc(-c2cn3ccccc3n2)ccc1OCc1ccc(Br)cc1F [Example 58],Weight Change (%),[1],−10%
same,Insulin level change (%),[1]; plasma,−12%
same,Leptin level change (%),[1]; plasma,−55%
same,Decrease in plasma triglyceride level (%),[2]; 10 mg/kg oral,31%
same,Decrease in plasma triglyceride level (%),[2]; 30 mg/kg oral,66%
same,Decrease in plasma triglyceride level (%),[2]; 100 mg/kg oral,79%
same,Weight Change (%),[3],−19%
same,melting point,,111 to 113 °C
